In EP4768487A1, “FUSED LACTAM RING COMPOUND AND USE THEREOF” (Chengdu Zenitar Biomedical Technology Co., Ltd., priority 2023, dated 2025) one finds IC50 data, which are given here for 23 compounds.

Structures are written as SMILES.

For one test, the target named is T1, PARP1 (Homo sapiens, UniProt P09874).
T1 construct: purchased BPS 80501
T1 sequence (P09874 whole entry): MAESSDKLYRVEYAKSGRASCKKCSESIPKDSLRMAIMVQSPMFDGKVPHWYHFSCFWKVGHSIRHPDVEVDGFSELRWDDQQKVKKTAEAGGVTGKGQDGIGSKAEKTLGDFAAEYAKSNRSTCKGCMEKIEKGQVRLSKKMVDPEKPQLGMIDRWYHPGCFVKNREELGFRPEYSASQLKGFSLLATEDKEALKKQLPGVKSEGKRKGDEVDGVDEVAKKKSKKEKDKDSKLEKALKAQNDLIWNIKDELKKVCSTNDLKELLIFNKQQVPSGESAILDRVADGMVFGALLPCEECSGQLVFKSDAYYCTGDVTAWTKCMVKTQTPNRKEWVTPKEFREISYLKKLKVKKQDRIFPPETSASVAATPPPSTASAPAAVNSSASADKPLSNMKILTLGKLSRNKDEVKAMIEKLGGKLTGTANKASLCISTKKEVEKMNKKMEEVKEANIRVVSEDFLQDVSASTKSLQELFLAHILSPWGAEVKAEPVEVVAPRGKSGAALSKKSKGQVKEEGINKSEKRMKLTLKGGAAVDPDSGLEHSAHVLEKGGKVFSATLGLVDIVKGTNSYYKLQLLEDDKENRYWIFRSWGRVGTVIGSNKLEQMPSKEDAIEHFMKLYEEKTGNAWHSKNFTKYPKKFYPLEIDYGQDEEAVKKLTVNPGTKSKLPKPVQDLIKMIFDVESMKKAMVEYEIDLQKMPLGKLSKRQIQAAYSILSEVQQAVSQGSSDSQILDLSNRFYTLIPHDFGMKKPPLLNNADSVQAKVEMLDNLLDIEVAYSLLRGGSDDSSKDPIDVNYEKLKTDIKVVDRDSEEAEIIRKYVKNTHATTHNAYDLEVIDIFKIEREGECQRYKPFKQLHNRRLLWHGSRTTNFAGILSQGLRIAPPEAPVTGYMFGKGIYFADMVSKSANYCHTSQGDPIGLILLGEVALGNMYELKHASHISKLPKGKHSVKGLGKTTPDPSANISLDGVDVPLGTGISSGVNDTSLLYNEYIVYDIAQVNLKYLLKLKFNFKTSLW
Kind of test: PARP1 enzyme assay (histone-coated plate, chemiluminescence). The class given is biochemical. The settings on record: PARP1 0.02 nM, DNA 0.8 nM, NAD+ 3.5 µM; read-out: PARP-1 IC50. As for the experimental part:
1.1.1. Buffer preparation: PBST: 1× PBS, 0.05% Tween-20; blocking buffer: 1× PBS, 0.05% Tween-20, 5% BSA; reaction buffer: 50 mM Tris-HCl (pH 7.5), 0.005% Tween-20, 0.01% BSA.
1.1.2. Coating: A 50 ng/mL Histone coating solution was prepared with 1× PBS and then transferred to a 384-well reaction plate at 25 µL/well. The plate was coated at 4 °C overnight.
1.1.3. Washing: After the coating was completed, the coating solution was discarded, and the plate was washed with the PBST solution. The method was as follows: PBST was transferred to the 384-well reaction plate at 50 µL/well, and the plate was left to stand for 5 min. The washing solution was then discarded, and the plate was refilled. The washing step was repeated 3 times. Finally, the reaction plate was patted dry and left for the next step of blocking.
1.1.4. Blocking: The blocking buffer was transferred to the 384-well reaction plate at 50 µL/well, and the plate was left to stand for 1 h.
Washing: After the blocking was completed, the blocking buffer was discarded, and the plate was washed 3 times with the PBST solution according to the method in step 2. Finally, the reaction plate was patted dry.
1.1.5. A 1000-fold solution of a compound was prepared and then transferred at 1 µL/well to a 96-well plate containing 199 µL of the reaction buffer. The mixture was well mixed, and then the well mixed compound solution was transferred to the 384-well reaction plate at 5 µL/well. 1.1.6. A 25/10-fold PARP1-DNA solution was prepared with the reaction buffer and then transferred to the 384-well reaction plate at 10 µL/well. For the negative control wells, 10 µL
of the DNA solution was transferred. The final concentrations of PARP1 and DNA were 0.02 nM and 0.8 nM, respectively.
1.1.9. Washing: After the reaction was completed, the reaction solution was discarded, and the plate was washed 3 times with the PBST solution according to the method in step 2. Finally, the reaction plate was patted dry.
1.1.10. A primary antibody (anti-Poly/Mono-ADP Ribose Rabbit mAb) was diluted 2000-fold with the blocking buffer and then added at 20 µL/well.
1.1.11. Washing: The primary antibody was discarded, and the plate was washed 3 times with the PBST solution according to the method in step 2. Finally, the reaction plate was patted dry.
1.1.12. A secondary antibody (anti-rabbit IgG, HRP-linked Antibody) was diluted 2000-fold with the blocking buffer and then added at 20 µL/well.
1.1.13. Washing: The secondary antibody was discarded, and the plate was washed 3 times with the PBST solution according to the method in step 2. Finally, the reaction plate was patted dry.
1.1.14. Color development: Femto-ECL Substrate A and Femto-ECL Substrate B were mixed at a ratio of 1:1, and the mixture was transferred to the 384-well reaction plate at 25 µL/well. 1.1.15. Reading: The chemiluminescence values (RLU) were measured using Envision.
Regarding `CCc1cc2c([nH]c1=O)CC(CN1CCN(c3ccc(C(=O)NC4CC4)nc3)CC1)CC2` (centres unmarked) [Compound 20, N-Cyclopropyl-5-(4-((3-ethyl-2-oxo-1,2,5,6,7,8-hexahydroquinoline-7-yl)methyl)piperazin-1-yl)picolinamide], the IC50 is at most 0.05 µM.

For the compound `CCc1cc2c([nH]c1=O)CC(CN1CCN(c3ccc(C(=O)NC)nc3F)CC1)CC2` (centres unmarked) [Compound 16, 5-(4-((3-Ethyl-2-oxo-1,2,5,6 ,7,8-hexahydroquinoline-7-yl)methyl)piperazin-1-yl)-6-fl uoro-N-methylpicolinamide], the IC50 is at most 0.05 µM.

As to `CCc1cc2c([nH]c1=O)CC(CN1CCN(c3ccc(C(=O)NC)nc3C)CC1)CC2` (centres unmarked) [Compound 17, 5-(4-((3-Ethyl-2-oxo-1,2,5,6 ,7,8-hexahydroquinoline-7-yl)methyl)piperazin-1-yl)-N,6-dimethylpicolinamide], the IC50 was at most 0.05 µM.

With `CCc1cc2c([nH]c1=O)CC(CN1CC=C(c3ccc(C(=O)NC)nc3)CC1)CC2` (centres unmarked) [Compound 23, 1'-((3-Ethyl-2-oxo-1,2,5,6,7,8-hexahydroquinoline-7-yl)methyl)-N-methyl-1',2',3',6'-tetrahydro-[3,4'-bipyridine]-6-carboxamide], the IC50 was at most 0.05 µM.

As to `[2H]C([2H])([2H])NC(=O)c1ccc(N2CCN(CC3CCc4cc(CC)c(=O)[nH]c4C3)CC2)c(F)n1` (centres unmarked) [Compound 19, 5-(4-((3-Ethyl-2-oxo-1,2,5,6 ,7,8-hexahydroquinoline-7-yl)methyl)piperazin-1-yl)-6-fl uoro-N-(methyl-d3)picolinamide], the IC50 is at most 0.05 µM.

In the case of `[2H]C([2H])([2H])NC(=O)c1ccc(C2=CCN(CC3CCc4cc(CC)c(=O)[nH]c4C3)CC2)cn1` (centres unmarked) [Compound 26, 1'-((3-Ethyl-2-oxo-1,2,5,6,7,8-hexahydroquinoline-7-yl)methyl)-N-(methyl-d3)-1',2', 3',6'-tetrahydro-[3,4'-bipyridine]-6-carboxamide], the IC50 was at most 0.05 µM.

In the case of `CCc1cc2c([nH]c1=O)CC(CN1CCN(c3ccc(C(=O)NC)nc3)CC1)CC2` (centres unmarked) [Compound 15, 5-(4-((3-Ethyl-2-oxo-1,2,5,6 ,7,8-hexahydroquinoline-7-yl)methyl)piperazin-1-yl)-N-methylpicolinamide], the IC50 was at most 0.05 µM.

In the case of `CCc1cc2c([nH]c1=O)CC(CN1CC=C(c3ccc(C(=O)NC4CC4)nc3F)CC1)CC2` (centres unmarked) [Compound 29, N-Cyclopropyl-1'-((3-ethyl-2-oxo-1,2,5,6,7,8-hexahydroquinoline-7-yl)methyl)-2-flu oro-1',2',3',6'-tetrahydro-[3,4 '-bipyridine]-6-carboxamide], the IC50 was at most 0.05 µM.

For the compound `CNC(=O)c1ccc(N2CCN(C[C@@H]3Cc4[nH]c(=O)c(C)cc4CO3)CC2)c(Cl)n1` [Example 94, (S)-6-Chloro-N-methyl-5-(4-((3-methyl-2-oxo-1,5,7,8-tetrahydro-2H-pyrano[4,3-b]pyridin-7-yl)methyl)piperazin-1-yl)picolinamide], the IC50 was at most 0.05 µM.

Regarding `[2H]C([2H])([2H])NC(=O)c1ccc(C2=CCN(CC3CCc4cc(CC)c(=O)[nH]c4C3)CC2)c(F)n1` (centres unmarked) [Compound 27, 1'-((3-Ethyl-2-oxo-1,2,5,6,7,8-hexahydroquinoline-7-yl)methyl)-2-fluoro-N-(methyl-d3)-1',2',3',6'-tetrahydro-[3,4' -bipyridine]-6-carboxamide], the IC50 was at most 0.05 µM.

In the case of `CCc1cc2c([nH]c1=O)CC(CN1CC=C(c3ccc(C(=O)NCC(F)F)nc3F)CC1)CC2` (centres unmarked) [Compound 30, N-(2,2-Difluoroethyl)-1'-((3-ethyl-2-oxo-1,2,5,6,7,8-hexahydroquinoline-7-yl)methyl)-2-fluoro-1',2',3',6'-tetrahy dro-[3,4'-bipyridine]-6-carb oxamide], the IC50 is at most 0.05 µM.

For `CCc1cc2c([nH]c1=O)CC(CN1CC=C(c3ccc(C(=O)NC4CC4)nc3)CC1)OC2` (centres unmarked) [Compound 8, N-Cyclopropyl-1'-((3-ethyl-2-oxo-1,5,7,8-tetrahydro-2H -pyrano[4,3-b]pyridin-7-yl)methyl)-1',2',3',6'-tetrahydro-[3,4'-bipyridine]-6-carboxamide], the IC50 was at most 0.05 µM.

In the case of `CCc1nc2c([nH]c1=O)C[C@@H](CN1CCN3c4ccc(C(=O)NC)nc4COC[C@H]3C1)CC2` [Example 105], the IC50 is at most 0.05 µM.

In the case of `CCc1cc2c([nH]c1=O)CC(CN1CC=C(c3ccc(C(=O)NC)nc3C)CC1)CC2` (centres unmarked) [Compound 25, 1'-((3-Ethyl-2-oxo-1,2,5,6,7,8-hexahydroquinoline-7-yl)methyl)-N,2-dimethyl-1',2',3 ',6'-tetrahydro-[3,4'-bipyridine]-6-carboxamide], the IC50 is at most 0.05 µM.

As to `[2H]C([2H])([2H])NC(=O)c1ccc(N2CCN(CC3CCc4cc(CC)c(=O)[nH]c4C3)CC2)cn1` (centres unmarked) [Compound 18, 5-(4-((3-Ethyl-2-oxo-1,2,5,6 ,7,8-hexahydroquinoline-7-yl)methyl)piperazin-1-yl)-N-(methyl-d3)picolinamide], the IC50 is at most 0.05 µM.

Turning to `CCc1cc2c([nH]c1=O)CC(CN1CCN(c3ccc(C(=O)NC4CC4)nc3F)CC1)CC2` (centres unmarked) [Compound 21, N-Cyclopropyl-5-(4-((3-ethyl-2-oxo-1,2,5,6,7,8-hexahydroquinoline-7-yl)methyl)piperazin-1-yl)-6-fluoropicoli namide], the IC50 was at most 0.05 µM.

For the compound `CCc1cc2c([nH]c1=O)CC(CN1CCN(c3ccc(C(=O)NCC(F)F)nc3F)CC1)CC2` (centres unmarked) [Compound 22, N-(2,2-Difluoroethyl)-5-(4-( (3-ethyl-2-oxo-1,2,5,6,7,8-hexahydroquinoline-7-yl)methyl)piperazin-1-yl)-6-fluoro picolinamide], the IC50 is at most 0.05 µM.

Regarding `CCc1cc2c([nH]c1=O)CC(CN1CC=C(c3ccc(C(=O)NC4CC4)nc3F)CC1)OC2` (centres unmarked) [Compound 7, N-Cyclopropyl-1'-((3-ethyl-2-oxo-1,5,7,8-tetrahydro-2H -pyrano[4,3-b]pyridin-7-yl)methyl)-2-fluoro-1',2',3',6'-tetrahydro-[3,4'-bipyridine]-6-carboxamide], the IC50 is at most 0.05 µM.

Take `CCc1cc2c([nH]c1=O)CC(CN1CC=C(c3ccc(C(=O)NC)nc3F)CC1)CC2` (centres unmarked) [Compound 24, 1'-((3-Ethyl-2-oxo-1,2,5,6,7,8-hexahydroquinoline-7-yl)methyl)-2-fluoro-N-methyl-1',2',3',6'-tetrahydro-[3,4'-bipyridine]-6-carboxamide]: the IC50 was at most 0.05 µM.

As for `CCc1cc2c([nH]c1=O)CC(CN1CCN(c3ccc(C(=O)NC)nc3F)C[C@H]1C)OC2` (stereo partly drawn) [Example 75, 5-((3R)-4-((3-Ethyl-2-oxo-1,5,7,8-tetrahydro-2H-pyrano[4,3-b]pyridin-7-yl)methyl)-3-methylpiperazin-1-yl)-6-fluoro-N-methylpicolinamide], the half-maximal inhibitory concentration (IC50) was in the range of 0.05 to 0.5 µM.

For `CCc1cc2c([nH]c1=O)CC(CN1CCN(c3ccc(C(=O)NC)nc3F)C[C@@H]1C)OC2` (stereo partly drawn) [Example 72, 5-((3S)-4-((3-Ethyl-2-oxo-1,5,7,8-tetrahydro-2H-pyrano[4,3-b]pyridin-7-yl)methyl)-3-methylpiperazin-1-yl)-6-fluoro-N-methylpicolinamide], the IC50 lay in the range of 0.05 to 0.5 µM.

Regarding `CCc1cc2c([nH]c1=O)CC(CN1CC=C(c3ccc(C(=O)NC4CC4)nc3)CC1)CC2` (centres unmarked) [Compound 28, N-Cyclopropyl-1'-((3-ethyl-2-oxo-1,2,5,6,7,8-hexahydroquinoline-7-yl)methyl)-1',2', 3',6'-tetrahydro-[3,4'-bipyridine]-6-carboxamide], the IC50 is at most 0.05 µM.

The test system of the next test is BRCA wild-type DLD-1 cells. Kind of test: Anti-proliferative activity against cells (CCK8): DLD-1. It is filed as cell-based. The settings on record: Homo sapiens, 72 h + 96 h culture. As for the experimental part:
BRCA wild-type DLD-1 cells were cultured in an RPMI-1640 medium containing 10% fetal bovine serum, 100 U/mL penicillin, and 100 µg/mL streptomycin, and incubated in an incubator with 5% saturated CO2 at 37 °C. When the cells grew to 80% confluence, they were collected, centrifuged at 300 g for 10 min, and then plated onto a 96-well plate at 1000 cells/well. After 24 h, different final concentrations (0 µM, 1 µM, and 10 µM) of PARPi were added, and the cells were cultured for another 72 h. The cells were subjected to medium exchange treatment (re-supplemented with PARPi at the same final concentrations) and then cultured for another 96 h. The 96-well plate was taken out.
For the compound `[2H]C([2H])([2H])NC(=O)c1ccc(N2CCN(C([2H])([2H])[C@H]3CCc4nc(C)c(=O)[nH]c4C3)CC2)c(F)n1` [Example 84, (S)-6-Fluoro-N-(methyl-d3)-5-(4-((2-methyl-3-oxo-3,4,5,6,7,8-hexahydroquinoxalin-6-yl)methyl-d2)piperazin-1-yl)picolinamide], the IC50 is above 1 µM.
